Assay results published in patent US20070191420A1, “Kinase inhibitors” (Devgen NV, priority 2004, published 2007).
Where a name gives a salt, the structure may show the parent alone.

Key:
Assay in all cases: Fluorescence polarization (FP) PKC inhibition assay, Protein Kinase C Assay Kit, Red (Invitrogen)
Format in all cases: biochemical
PKC epsilon = target: T1, PKC epsilon (Homo sapiens, UniProt Q02156); settings: enzyme 10 ng/ml, ATP 2.5 μM
T1 construct: purchased Invitrogen 6906
T1 sequence (Q02156 1-737): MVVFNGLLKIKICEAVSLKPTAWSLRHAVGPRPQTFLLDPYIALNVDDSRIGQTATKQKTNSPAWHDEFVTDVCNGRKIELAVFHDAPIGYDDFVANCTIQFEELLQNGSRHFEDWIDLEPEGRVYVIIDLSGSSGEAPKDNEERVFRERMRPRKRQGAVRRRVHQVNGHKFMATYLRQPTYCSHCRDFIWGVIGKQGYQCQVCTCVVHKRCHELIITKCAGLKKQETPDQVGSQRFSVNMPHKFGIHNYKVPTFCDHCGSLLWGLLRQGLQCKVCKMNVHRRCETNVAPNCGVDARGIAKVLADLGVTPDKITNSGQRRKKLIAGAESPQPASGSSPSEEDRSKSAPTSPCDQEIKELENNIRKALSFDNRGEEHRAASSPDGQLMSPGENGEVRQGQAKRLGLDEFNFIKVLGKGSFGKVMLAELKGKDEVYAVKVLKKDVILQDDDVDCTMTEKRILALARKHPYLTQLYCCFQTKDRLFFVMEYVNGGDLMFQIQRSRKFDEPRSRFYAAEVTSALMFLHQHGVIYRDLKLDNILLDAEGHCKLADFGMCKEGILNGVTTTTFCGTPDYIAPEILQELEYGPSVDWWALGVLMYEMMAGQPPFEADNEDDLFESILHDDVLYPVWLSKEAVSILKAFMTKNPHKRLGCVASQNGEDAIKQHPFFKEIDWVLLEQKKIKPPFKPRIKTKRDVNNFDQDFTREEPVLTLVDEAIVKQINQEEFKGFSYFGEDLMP
Method: (§1) The substrate used was […]
(§2) To perform the assay, 2 μl of a solution of the compound to be tested in DMSO (at each concentration) was added to 6 μl of a solution of the enzyme in 10 mM HEPES, 5 mM dithiotreitol, 0.1% Triton X-100, pH 7,4.
(§3) After incubating for 30 minutes at room temperature, 4 μl of a mixture of ATP and the protein substrate in 60 mM HEPES (pH7.4), 15 mM MgCl2, 0.3 mM CaCl2, 0.06% NP40 was added.
(§4) After incubating for 80 minutes at room temperature, 3 μl of a mix solution of 500 mM EDTA (stop solution) and the Rhodamine-based PKC Red Tracer (from the Protein Kinase C Assay Kit) in BGG/phosphate buffer (pH7.4) with 0.02% NaN3 and 0.1% Triton X-100 was added and 5 μl of a the Anti-Phosphoserine antibody (also from the Protein Kinase C Assay Kit) in BGG/phosphate buffer (pH7.4) with 0.02% NaN3.
(§5) The results were fitted to a curve using the XL-Fit algorithm and IC50 values were calculated for each fitted curve, again using the XL-Fit algorithm.

PKC gamma = target: T2, PKC gamma (Homo sapiens, UniProt P05129); settings: enzyme 20 ng/ml, ATP 2.5 μM
T2 construct: purchased Invitrogen 9343
Method: as §1, §2, §3, §4, §5

PKC theta = target: T3, PKC theta (Homo sapiens, UniProt Q04759); settings: enzyme 20 ng/ml, ATP 2.5 μM
T3 construct: purchased Invitrogen 7101
T3 sequence (Q04759 whole entry): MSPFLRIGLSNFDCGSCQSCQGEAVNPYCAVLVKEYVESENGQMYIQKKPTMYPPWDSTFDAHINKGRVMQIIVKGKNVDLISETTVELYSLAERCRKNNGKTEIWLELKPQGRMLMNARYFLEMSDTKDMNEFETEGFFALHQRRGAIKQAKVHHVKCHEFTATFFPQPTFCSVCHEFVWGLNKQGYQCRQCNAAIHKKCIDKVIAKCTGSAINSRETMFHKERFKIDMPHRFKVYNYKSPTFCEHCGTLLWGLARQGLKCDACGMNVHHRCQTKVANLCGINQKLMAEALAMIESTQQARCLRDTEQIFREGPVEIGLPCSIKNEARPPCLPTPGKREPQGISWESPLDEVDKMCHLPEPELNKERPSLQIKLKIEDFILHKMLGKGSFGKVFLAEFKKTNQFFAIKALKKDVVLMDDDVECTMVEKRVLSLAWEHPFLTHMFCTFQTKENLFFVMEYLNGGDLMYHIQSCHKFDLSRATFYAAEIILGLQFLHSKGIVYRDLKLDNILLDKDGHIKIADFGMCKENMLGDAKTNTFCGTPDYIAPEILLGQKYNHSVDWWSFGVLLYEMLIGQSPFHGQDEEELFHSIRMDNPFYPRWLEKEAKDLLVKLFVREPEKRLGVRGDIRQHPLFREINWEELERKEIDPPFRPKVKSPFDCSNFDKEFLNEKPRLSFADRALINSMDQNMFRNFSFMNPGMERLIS
Method: as §1, §2, §3, §4, §5

PKC zeta = target: T4, PKC zeta (Homo sapiens, UniProt Q05513); settings: enzyme 20 ng/ml, ATP 2.5 μM
T4 construct: purchased Invitrogen 9232
T4 sequence (Q05513 1-592): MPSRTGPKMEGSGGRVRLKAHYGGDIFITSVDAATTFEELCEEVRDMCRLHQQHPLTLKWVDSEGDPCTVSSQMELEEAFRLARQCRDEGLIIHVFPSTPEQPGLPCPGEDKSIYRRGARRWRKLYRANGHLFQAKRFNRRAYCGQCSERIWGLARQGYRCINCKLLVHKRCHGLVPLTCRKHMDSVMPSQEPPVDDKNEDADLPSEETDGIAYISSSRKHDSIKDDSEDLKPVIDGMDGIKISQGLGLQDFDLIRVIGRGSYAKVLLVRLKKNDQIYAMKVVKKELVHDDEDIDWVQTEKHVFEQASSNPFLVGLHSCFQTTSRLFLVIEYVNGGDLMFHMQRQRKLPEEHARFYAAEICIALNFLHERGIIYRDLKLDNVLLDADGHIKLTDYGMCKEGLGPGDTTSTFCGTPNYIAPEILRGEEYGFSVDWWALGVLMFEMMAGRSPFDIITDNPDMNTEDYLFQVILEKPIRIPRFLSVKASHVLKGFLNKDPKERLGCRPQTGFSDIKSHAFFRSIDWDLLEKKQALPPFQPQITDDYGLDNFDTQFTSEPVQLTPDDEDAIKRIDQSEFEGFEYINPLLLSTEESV
Method: as §2, §3, §4, §5

Compound | IC50 (PKC epsilon; substrate RFARKGSLRQKNV 1 μM) [µM] | IC50 (PKC gamma; substrate RFARKGSLRQKNV 1 μM) [µM] | IC50 (PKC theta; substrate RFARKGSLRQKNV 1 μM) [µM] | IC50 (PKC zeta; substrate RFARKGSLRQKNV 1 μM) [µM] | IC50 (PKC epsilon; substrate […] 1 μM) [µM] | IC50 (PKC gamma; substrate […] 1 μM) [µM] | IC50 (PKC theta; substrate […] 1 μM) [µM] | IC50 (PKC zeta; substrate […] 1 μM) [µM]
4-aminomethyl-2,5-dimethyl-N-pyridin-4-yl-benzamide dihydrochloric acid salt [Compound 39] | 8.3 | > 100 | 16.8 | > 100 |  |  |  | 
CC(N)c1ccc(C(=O)Nc2ccncc2)s1 (racemic) [Compound 22, 5-(1-amino-ethyl)-thiophene-2-carboxylic acid pyridinedin-4-ylamide] |  |  |  |  | 16 | > 100 | 9.01 | 45.9
NCCCCCC(=O)Nc1ccncc1 [Compound 1, 6-Amino-hexanoic acid pyridine-4-ylamide dihydrochloric acid salt] |  |  |  |  | > 100 | > 100 | > 100 | > 100
CC(C)(C)C1CCC(C(=O)Nc2ccncc2)CC1 (centres unmarked) [Compound 2, 4-tert-butyl-cyclohexanecarboxylic acid pyridine-4-ylamide] |  |  |  |  | > 100 | > 100 | > 100 | > 100
NC[C@H]1CC[C@H](C(=O)Nc2ccccc2)CC1 [Compound 3, Trans-4-aminomethyl-cyclohexanecarboxylic acid phenylamide hydrochloric acid salt] |  |  |  |  | > 100 | 90.5 | > 100 | 40.3
NC[C@H]1CC[C@H](C(=O)Nc2ccc(F)cc2)CC1 [Compound 4, Trans-4-aminomethyl-cyclohexanecarboxylic acid (4-fluoro-phenyl)-amide hydrochloric acid salt] |  |  |  |  | > 100 | > 100 | > 100 | > 100
NC[C@H]1CC[C@H](C(=O)NCc2ccncc2)CC1 [Compound 5, Trans-4-aminomethyl-cyclohexanecarboxylic acid (pyridine-4-ylmethyl)-amide] |  |  |  |  | > 100 | > 100 | > 100 | > 100
NC[C@H]1CC[C@H](C(=O)Nc2cccnc2)CC1 [Compound 6, Trans-4-aminomethyl-cyclohexanecarboxylic acid pyridin-3-ylamide] |  |  |  |  | > 100 | > 100 | > 100 | > 100
NC[C@H]1CC[C@H](C(=O)Nc2ccccn2)CC1 [Compound 7, Trans-4-aminomethyl-cyclohexanecarboxylic acid pyridin-2-ylamide] |  |  |  |  | > 100 | > 100 | > 100 | > 100
CC(O)c1ccc(C(=O)Nc2ccncc2)cc1 (centres unmarked) [Compound 8, 4-(1-hydroxy-ethyl)-N-pyridin-4-yl-benzamide] |  |  |  |  | > 100 | > 100 | > 100 | > 100
NCc1cccc(C(=O)Nc2ccncc2)c1 [Compound 9, 3-aminomethyl-N-pyridin-4-yl-benzamide dihydrochloric acid salt] |  |  |  |  | > 100 | > 100 | > 100 | > 100
NCc1ccc(S(=O)(=O)Nc2ccncc2)cc1 [Compound 10, 4-aminomethyl-N-pyridin-4-yl-benzenesulfonamide] |  |  |  |  | > 100 | > 100 | > 100 | > 100
NCc1ccc(NCc2ccncc2)cc1 [Compound 11, (4-aminomethyl-phenyl)-pyridin-4-ylmethyl-amine dihydrochloric acid salt] |  |  |  |  | > 100 | > 100 | > 100 | > 100
N/C(=N\O)c1ccc(C(=O)Nc2ccncc2)cc1 [Compound 12, 4-(N-pyridin-4-yl)-benzamide oxime] |  |  |  |  | > 100 | > 100 | > 100 | > 100
NCc1ccc(-c2nc(-c3ccncc3)no2)cc1 [Compound 13, 4-(3-pyridin-4-yl-[1,2,4]oxadiazol-5-yl-benzylaminedihydrochloric acid salt] |  |  |  |  | > 100 | > 100 | > 100 | > 100
NCc1ccc(-c2nc3ccncc3[nH]2)cc1 [Compound 14, 4-(3H-imidazo[4,5-c]pyridine-2-yl)-benzylamine] |  |  |  |  | > 100 | > 100 | > 100 | > 100
NCc1ccc(C(=O)Nc2ccncc2)o1 [Compound 15, 5-(amino-methyl)-furan-2-carboxylic acid pyridine-4-ylamide dihydrochloric acid salt] |  |  |  |  | > 100 | > 100 | > 100 | > 100
CC(=O)NCc1ccc(C(=O)Nc2ccncc2)cc1 [Compound 16] |  |  |  |  | > 100 | > 100 | > 100 | > 100
CC(c1ccc(C(=O)Nc2ccncc2)cc1)N(C)C (centres unmarked) [Compound 17] |  |  |  |  | > 100 | > 100 | > 100 | > 100
NC[C@H]1CC[C@H](C(=O)Nc2ccncc2)CC1 [Compound 19, Trans-4-aminomethyl-cyclohexanecarboxylic acid pyridin-4-ylamide] |  |  |  |  | 5.12 | > 100 | 7.35 | 24.3
NCc1ccc(C(=O)Nc2ccncc2)cc1 [Compound 20, 4-aminomethyl-N-pyridin-4-yl-benzamide dihydrochloric acid salt] |  |  |  |  | 6.23 | > 100 | 9.14 | 51.4
NCc1ccc(C(=O)Nc2ccncn2)cc1 [Compound 21, 4-aminomethyl-N-pyrimidin-4-yl-benzamide dihydrochloric acid salt] |  |  |  |  | 34.4 | > 100 | 87.2 | > 100
CC(N)c1ccc(C(=O)Nc2ccncc2)cc1 (centres unmarked) [Compound 23, 4-(1-amino-ethyl)-N-pyridin-4-yl-benzamide dihydrochloric acid salt] |  |  |  |  | 1.21 | > 100 | 2.25 | 22.1
CCC(N)c1ccc(C(=O)Nc2ccncc2)cc1 (centres unmarked) [Compound 24, 4-(1-amino-propyl)-N-pyridin-4-yl-benzamide dihydrochloric acid salt] |  |  |  |  | 0.65 | > 30 | 2.91 | 25.4
CC(C)(C)CC(N)c1ccc(C(=O)Nc2ccncc2)cc1 (centres unmarked) [Compound 25, 4-(1-amino-3,3-dimethyl-butyl)-N-pyridin-4-yl-benzamide dihydrochloric acid salt] |  |  |  |  | 4.98 | > 100 | 12.2 | > 100
NC(c1ccc(C(=O)Nc2ccncc2)cc1)C1CC1 (centres unmarked) [Compound 26] |  |  |  |  | 0.72 | 35.9 | 3.9 | 41.5
CC(N)c1ccc(C(=O)Nc2ccnc3[nH]ccc23)s1 (centres unmarked) [Compound 40, 5-(1-amino-ethyl)-thiophene-2-carboxylic acid N-(1H-pyrrolo[2,3pyridinedin-4-yl)-benzamidedihydrochloric acid salt] |  |  |  |  | 3.9 |  | 3.2 | > 100
